A short description of data set [1]: Dissolution test, ibuprofen (paddle method, JP second fluid pH 6.8). The data set is classed as physicochemical. To be noted: JP second fluid pH 6.8, 37° C., 75 rpm. Here is the method: (§1) Dissolution tests were carried oat, according to the procedures shown in Tables 6 to 8 and described below, on pharmaceutical preparations composed of the drug-containing particles obtained in Examples 11 and 12. The results are shown in Tables 9 and 10 and in FIGS. 14 and 15.
The liquid sampled in the dissolution test is used directly as the sample solution. Analysis according to “2.01 Liquid Chromatography” is carried out on this sample solution. Testing of the ibuprofen content in the sample solution is carried out under the conditions indicated in (1) above.
In a separate operation, 25 mg of ibuprofen reference is precisely weighed out and dissolved in acetonitrile while bringing the volume up to exactly 50 mL. Next, 5 mL of this solution is precisely measured out and JP second fluid is added so as to bring the volume up to exactly 25 mL, thereby giving a reference solution (about 100 ppm). In a separate operation, 5 mL of this solution is precisely measured out and JP second fluid is added so as to bring the volume up to 50 mL, thereby giving a 50 ppm reference solution. Next, 10 mL of this solution is precisely measured out and JP second fluid is added so as to bring the volume up to exactly 25 mL, thereby giving a […] reference solution. Liquid chromatography is carried out on these reference solutions, and the slopes (a) and intercepts (t) of the straight lines obtained by plotting the peak areas and concentrations of the ibuprofen references are determined. The dissolution rate is determined by entering the content B in the sample solution into the following formula: […]

The nature of data set [2]: Dissolution test, rabeprazole (paddle method, tris buffer pH 8.0). The data set is classed as physicochemical. The note with it: tris buffer pH 8.0, 37° C., 50 rpm. Here is the method:
as §1
First, 20 mg of rabeprazole sodium is precisely weighed cut and dissolved by adding 30 mL of an aqueous NaOH solution (0.5 M), after which 45 mL of methanol is added, then the volume is brought up to exactly 100mL with a water-methanol solution (2:3). Two mL of this solution is precisely measured out and brought up to exactly 100 mL with a water-methanol solution (2:3), thereby giving a 4 ppm reference solution. In a separate procedure, 2 mL of the same solution is precisely measured out and brought up to a volume of exactly 200 mL with a water-methanol solution (2:3), thereby giving a 2 ppm reference solution. Liquid chromatography is carried on these reference solutions, and the slopes (a) and intercepts (t) of the straight lines obtained by plotting the peak areas and concentrations of rabeprazole are determined.
One milliliter of an aqueous NaOH solution (0.5 M) is added to 5 mL of the sample solution at each sampling time, and the resulting solution is thoroughly mixed. Next, 4 mL of this solution is precisely measured out, then 2 mL of an aqueous NaOH solution (0.5 M) and 8 mL of methanol are added, following which the volume is brought up to exactly 20 mL with a water-methanol solution (2:3). Liquid chromatography is then carried cut under the conditions described above, and the peak area (Qt) for rabeprazole is determined. Both the reference solutions and the sample solution are used as injection solutions after filtration with a membrane filter having a pore sire of 0.2 μm.
Dissolution rate (%)=(Qt−t)/a×5×6/5×900/1,000/amount of rabeprazole Na collected (mg)×100

Consider two compounds from patent US20140030346A1, “DISINTEGRABLE CORE PARTICLE FOR PHARMACEUTICAL PREPARATION” (priority 2010, published 2014).

Regarding `CC(C)Cc1ccc(C(C)C(=O)O)cc1` (stereo not drawn) [IBP-Ref., Ibuprofen], the Dissolution rate is reported as 49.5% in data set [1] (dissolution time 5 min); 77.3% in data set [1] (dissolution time 10 min); 83.4% in data set [1] (dissolution time 15 min); 86.0% in data set [1] (dissolution time 20 min); 89.6% in data set [1] (dissolution time 30 min); 95.0% in data set [1] (dissolution time 60 min).
As for `COCCCOc1ccnc(C[S+]([O-])c2nc3ccccc3[nH]2)c1C` (stereo not drawn) [RBP-Ref., Rabeprazole Na], the Dissolution rate in data set [2] (dissolution time 5 min) stood at 78.6%; in data set [2] (dissolution time 10 min), 86.0%; in data set [2] (dissolution time 15 min) it was 87.1%; in data set [2] (dissolution time 20 min) it was 87.5%; in data set [2] (dissolution time 30 min), 85.5%; in data set [2] (dissolution time 60 min) it was 78.4%.
